Measured values from patent US20250129083A1, “IMIDAZOTETRAZINE COMPOUNDS AND TREATMENT OF TMZ-RESISTANT CANCERS” (THE BOARD OF TRUSTEES OF THE UNIVERSITY OF ILLINOIS, priority 2022, published 2025).
Where two headings read alike, the source gives them in different places.

Experiments:
T98G cells = assay: Cytotoxicity after pretreatment with MGMT inhibitor O6BG; format: cell-based, human; conditions: T98G pretreated (3 hours) with O6BG vs non-pretreated
Description: FIG. 3A-E. Investigation of the mechanism of action and efficacy of CPZ in MGMT+ cell lines. (A) Detection of O^6-methyl-2′-deoxyguanosine or O^6-propargyl-2′-deoxyguanosine in GL261 cells after treatment with TMZ or CPZ, respectively. GL261 cells were treated with the indicated concentration of compound for 8 hours before they were harvested and genomic DNA was extracted. DNA (10 μg) was hydrolyzed and submitted to LC-MS/MS for quantitation. Both O^6-Me-dG and O^6-proparyl-dG were below the limit of detection in the DMSO control. Error is SEM, n≥3. Cytotoxicity of TMZ (B) or CPZ (C) in T98G cells pretreated (3 hours) with MGMT inhibitor O6BG. Error is SEM, n≥3. (D) 7 day dose-response curves of TMZ and CPZ in GL261 cells. Error is SEM, n≥3. (E) 7 day dose-response curves of TMZ and CPZ in GL261 MGMT+ cells. Error is SEM, n≥3.
To further explore the ability of CPZ to evade MGMT-mediated resistance, MGMT-expressing T98G cells were pretreated with MGMT inhibitor O6BG followed by treatment with TMZ or CPZ. […] This cell death potentiation by TMZ upon treatment with an MGMT inhibitor was also observed in MGMT-expressing cell lines U118MG and RKO, whereas the efficacy of CPZ was again unaffected. […]

[1] = Assessment of hematological toxicity; format: in vivo
Text: Arguably the most important question when designing an alkylating agent able to evade MGMT-mediated resistance is the resultant effect on hematological toxicity. MGMT operates as a systemic protectant against alkylating xenobiotics. […] Therefore, an MGMT-independent alkylating agent like CPZ could render off-target cells vulnerable to irreparable DNA alkylation and result in a similar degree of toxicity. We hypothesized that the increased BBB permeability of CPZ would divert enough of the drug to the brain such that it could be tolerated at a therapeutically useful dose. The hematological effects of a single dose of TMZ or CPZ were compared head-to-head in vivo. Mice were treated with 125 mg/kg TMZ or CPZ intravenously; this dose was selected because 125 mg/kg TMZ is known to induce nonlethal toxicity in mice. After 7 days, the mice were sacrificed and complete blood counts were obtained. […] Additionally, the maximum tolerated dose (MTD) of CPZ was determined to be 66 mg/kg when dosed intraperitoneally (IP), once-per-day over five days. This matches the reported MTD of TMZ at the same schedule (˜66 mg/kg).
Assessment of Hematological Toxicity. Male CD-1 IGS mice (n≥3 mice/group) were administered a single dose of 125 mg/kg compound intravenously. Imidazotetrazines were formulated with DMSO, Tween-20, and 30% (w/v) SBE-PCD in sterile water immediately prior to injection. […]

T98G GBM cell line = assay: Cell viability assay (Alamar Blue, 7 days), T98G; format: cell-based, human; conditions: Homo sapiens, T98G, 168 h
Description: Cell Culture and Reagents. All cell lines were grown in a 37° C., 5% CO2, humidified environment, in media containing 1% penicillin/streptomycin. Stable cell line generation of GL261 MGMT+ was purchased from Creative Biogene. Cell culture conditions are as follows: cell lines U87, T98G, and RKO were grown in EMEM with 10% FBS. D54, GL261, GL261 MGMT+, and U118MG cell lines were grown in DMEM with 10% FBS. HCT116 cells were grown in RMPI with 10% FBS. D341 Med cells were grown in EMEM with 20% FBS. Temozolomide (TMZ) was purchased from AK Scientific. TMZ analogues were synthesized as described below. Compounds were dissolved in DMSO (1% final concentration, Fisher Chemical) for cell culture studies.
Cell Viability Assays. Cells were harvested, seeded in a 96-well plate and allowed to adhere. After three hours, compound was added to each well in DMSO (1% final concentration). Cells were incubated for seven days (unless otherwise noted) before viability was assessed by the Alamar Blue assay. Raptinal (20 μM) was used as a dead control.

[2] = test system: E. coli WP2 uvrA pKM101 strain; assay: Ames test, E. coli WP2 uvrA pKM101; format: cell-based; conditions: 30 μM
Description: Next, we measured the mutagenicity of CPZ versus TMZ. TMZ and other DNA methylating chemotherapies are known mutagens, inducing G:C→A:T mutations due to erroneous recognition of O^6-methylguanine. […] CPZ and TMZ (at 30 μM) were also assessed in the E. coli WP2 uvrA pKM101 strain, which is considered one of the more sensitive Ames tester strains available.

genomic DNA of D54 cells = assay: Quantitation of O6-guanine DNA adducts in cells, D54; format: cell-based; conditions: MGMT-negative; LC-MS/MS
Description: Importantly, because CPZ was designed to release a different active species than TMZ, the alkylation pattern in a cellular context is likely different. Therefore, to assess if alkylation still occurs with CPZ, a DNA alkylation assay was performed. GL261 cells were treated with 100, 300, or 500 μM TMZ or CPZ for 8 hours after which the cells were harvested and genomic DNA was extracted and subsequently hydrolyzed to constituent deoxyribonucleosides. LC-MS/MS analysis was employed to quantify the amount of O^6-methyl-2′-deoxyguanosine (O^6-Me-dG) or O^6-propargylated-2′-O^6-deoxyguanosine (O^6-Prop-dG) in each sample.
Quantitation of O^6-guanine DNA Adducts in Cells. GL261, A172, or D54 cells were plated at 1×10^6 c/w in a 6-well plate before they were treated with compound at the indicated concentration (1% final concentration DMSO). After incubation for the indicated time, the cells were harvested and pelleted. Genomic DNA was extracted using the DNeasy Blood & Tissue Kit (Qiagen, ID: 69504). DNA was then precipitated using the following procedure: 1/10 v/v […] sodium acetate (pH 5.2) and 2.5× v/v ethanol was added to each sample which was then kept at −80° C. for 1 h. […] Hydrolyzed samples were then submitted for LC-MS/MS quantitation along with a synthetic standard. Samples were analyzed with a 5500 QTRAP LC/MS/MS system (AB Sciex) with a 1200 series HPLC system (Agilent).

[3] = MGMT (+) MMR (+), read-out: Activity, T98G

SMILES | Potentiation of cell death by O6BG pretreatment (T98G cells) | Other hematological symptoms such as thrombocytopenia ([1]; mouse, in vivo, iv, 125 mg/kg) | IC50 (T98G GBM cell line; [3]) | Ames test revertant colonies, E. coli WP2 uvrA pKM101 [2] | Mutagenicity, E. coli WP2 uvrA pKM101 [2] | O6-dG alkylation adducts, D54 (genomic DNA of D54 cells) | White blood cell, lymphocyte, and neutrophil counts ([1]; mice, single 125 mg/kg IV dose, 7 days) | IC50 (T98G GBM cell line; MGMT (+), Alamar Blue, error SEM, n ≥ 3, read-out: Seven-day IC50, T98G)
C#CCn1nnc2c(Cl)ncn2c1=O [CPZ, 8-chloro-3-(prop-2-yn-1-yl)imidazo[5,1-d][1,2,3,5]tetrazin-4(3H)-one] | No such enhancement in activity | did not give rise to other hematological symptoms such as thrombocytopenia | 27 ± 6 µM | no revertant colonies | non-mutagenic | did not harbor measurable levels of the propargyl adduct |  | 
Cn1nnc2c(C(N)=O)ncn2c1=O [TMZ, temozolomide, reference compound] | dramatic potentiation of cell death |  | 570 ± 20 µM | 95/96 | mutagenic | dose-dependent increase in methyl adducts | depletions in white blood cells, lymphocytes, and neutrophils | > 550 µM
